Results as given in US20240376094A2, “SELECTIVE BCL-XL PROTAC COMPOUNDS AND METHODS OF USE” (Les Laboratoires Servier, priority 2021, published 2024).
pIC50: −log10 of the molar value.

Legend:
Format in all cases: cell-based
[1] = target: T1, HiBiT-tagged BCL-xL (Homo sapiens, UniProt Q07817); assay: NCI-H1650 BCL-xL protein levels, Nano-Glo HiBiT Lytic Detection; details: NCI-H1650 expressing HiBiT-tagged BCL-xL, overnight incubation, read-out: Bcl-xl HIBIT NCIH1650 DC50
T1 construct: expressed in transfected cells; host or cells: NCI-H1650 (ATCC No. CRL-5883), engineered HiBiT cell line
T1 sequence (Q07817 whole entry): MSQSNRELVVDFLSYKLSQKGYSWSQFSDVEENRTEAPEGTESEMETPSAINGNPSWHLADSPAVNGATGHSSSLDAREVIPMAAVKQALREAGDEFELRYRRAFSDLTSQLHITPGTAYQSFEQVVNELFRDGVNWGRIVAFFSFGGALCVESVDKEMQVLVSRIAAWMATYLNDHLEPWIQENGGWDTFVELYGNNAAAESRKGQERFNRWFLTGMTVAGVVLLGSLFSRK
In short: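 HiBiT luminescence after cell lysis with LgBiT/furimazine reagent reported BCL-xL levels, expressed relative to untreated wells and fitted with a four-parameter logistic equation. Engineered NCI-H1650 cells were exposed overnight at 37° C to compound at final 0.508 nM-10 μM (10 points, triplicate plates).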

[2] = tested on: MOLT-4 cells; assay: MOLT-4 cell viability, CTG assay; details: Homo sapiens, MOLT-4, 48 h
In short: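 Viability read as total ATP luminescence (CTG) after 48 h compound treatment, 11 points at 5-fold spacing in triplicate, cells in RPMI 1640/10% FBS. IC50 is the concentration halving signal relative to control, four-parameter fit, averaged over at least 2 experiments.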

[3] = tested on: EBC-1 lung cancer cell line; assay: EBC-1 cell proliferation, CellTiter-Glo assay; details: Homo sapiens, 120 h; Ebc-1 cell viability, CTG assay, 5 days of treatment; read-out: CTG 5 day Ebc1 GI50
In short: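 CellTiter-Glo read-out after 5-day compound treatment, normalised to untreated cells, with GI50 derived by four-parameter logistic regression. Ten concentrations spanning 0.508 nM–10 μM were added to 1000 EBC-1 cells per well the day after seeding. Assays required at least one cell doubling versus Day 0.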

[4] = target: T2, Bcl-xL (Homo sapiens, UniProt Q07817); assay: HCT116 Bcl-xL degradation, capillary-based immunoassay (WES); details: HCT116, 24 h, 9-point serial dilution
T2 construct: Measured levels of Bcl-xL protein of HCT116 cells treated with the tested compounds; host or cells: HCT116
T2 sequence (Q07817 whole entry): as above
In short: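 Bcl-xL protein level by capillary WES immunoassay in HCT116 lysates, as % of untreated after cofilin normalization. Compound exposure was 24 h at 10 and 100 nM and/or a 9-point series, in quadruplicate. Four-parameter fitting gave the DC50.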

Structure (SMILES) | DC50 [1] | pIC50 [2] | GI50 [3] | DC50 [4]
Cc1ncsc1-c1ccc(CNC(=O)[C@@H]2C[C@@H](O)CN2C(=O)[C@@H](NC(=O)C2(F)CC2)C(C)(C)SCCCCCCCCCCCN(C)CCOC23CC4(C)CC(C)(CC(Cn5ncc(-c6ccc(N7CCCc8c7nnc(Nc7nc9ccccc9s7)c8C)nc6C(=O)O)c5C)(C4)C2)C3)cc1 [Example 117, 6-[3-(1,3-benzothiazol-2-ylamino)-4-methyl-6,7-dihydro-5H-pyrido[2,3-c]pyridazin-8-yl]-3-[1-[[3-[2-[11-[(2R)-2-[(1-fluorocyclopropanecarbonyl)amino]-3-[(2S,4R)-4-hydroxy-2-[[4-(4-methylthiazol-5-yl)phenyl]methylcarbamoyl]pyrrolidin-1-yl]-1,1-dimethyl-3-oxo-propyl]sulfanylundecyl-methyl-amino]ethoxy]-5,7-dimethyl-1-adamantyl]methyl]-5-methyl-pyrazol-4-yl]pyridine-2-carboxylic acid] | > 1670 nM | 8.08 | 89 nM | 1.17 nM
Cc1ncsc1-c1ccc([C@H](C)NC(=O)[C@@H]2C[C@@H](O)CN2C(=O)[C@@H](NC(=O)COCCOCCOCCN(C)CCOC23CC4(C)CC(C)(CC(Cn5ncc(-c6ccc(N7CCCc8c7nnc(Nc7nc9ccccc9s7)c8C)nc6C(=O)O)c5C)(C4)C2)C3)C(C)(C)C)cc1 [Example 113, 6-[3-(1,3-benzothiazol-2-ylamino)-4-methyl-6,7-dihydro-5H-pyrido[2,3-c]pyridazin-8-yl]-3-[1-[[3-[2-[2-[2-[2-[2-[[(1S)-1-[(2S,4R)-4-hydroxy-2-[[(1S)-1-[4-(4-methylthiazol-5-yl)phenyl]ethyl]carbamoyl]pyrrolidine-1-carbonyl]-2,2-dimethyl-propyl]amino]-2-oxo-ethoxy]ethoxy]ethoxy]ethyl-methyl-amino]ethoxy]-5,7-dimethyl-1-adamantyl]methyl]-5-methyl-pyrazol-4-yl]pyridine-2-carboxylic acid] | > 1670 nM | 7.69 | 49 nM | > 316 nM
Cc1ncsc1-c1ccc([C@H](C)NC(=O)[C@@H]2C[C@@H](O)CN2C(=O)[C@@H](NC(=O)C2CCN(C(=O)CCCCCCCCCN(C)CCOC34CC5(C)CC(C)(CC(Cn6ncc(-c7ccc(N8CCCc9c8nnc(Nc8nc%10ccccc%10s8)c9C)nc7C(=O)O)c6C)(C5)C3)C4)CC2)C(C)(C)C)cc1 [Example 84, 6-[3-(1,3-benzothiazol-2-ylamino)-4-methyl-6,7-dihydro-5H-pyrido[2,3-c]pyridazin-8-yl]-3-[1-[[3-[2-[[10-[4-[[(1S)-1-[(2S,4R)-4-hydroxy-2-[[(1S)-1-[4-(4-methylthiazol-5-yl)phenyl]ethyl]carbamoyl]pyrrolidine-1-carbonyl]-2,2-dimethyl-propyl]carbamoyl]-1-piperidyl]-10-oxo-decyl]-methyl-amino]ethoxy]-5,7-dimethyl-1-adamantyl]methyl]-5-methyl-pyrazol-4-yl]pyridine-2-carboxylic acid] | > 1670 nM | 7.74 | 171 nM | > 316 nM
Cc1ncsc1-c1ccc([C@H](C)NC(=O)[C@@H]2C[C@@H](O)CN2C(=O)[C@@H](NC(=O)CCCCCCCCCCNC(=O)c2nc(N3CCCc4c3nnc(Nc3nc5ccccc5s3)c4C)ccc2-c2cnn(CC34CC5(C)CC(C)(C3)CC(OCCN3CCCC3)(C5)C4)c2C)C(C)(C)C)cc1 [Example 125, 6-[3-(1,3-benzothiazol-2-ylamino)-4-methyl-6,7-dihydro-5H-pyrido[2,3-c]pyridazin-8-yl]-3-[1-[[3,5-dimethyl-7-(2-pyrrolidin-1-ylethoxy)-1-adamantyl]methyl]-5-methyl-pyrazol-4-yl]-N-[11-[[(1S)-1-[(2S,4R)-4-hydroxy-2-[[(1S)-1-[4-(4-methylthiazol-5-yl)phenyl]ethyl]carbamoyl]pyrrolidine-1-carbonyl]-2,2-dimethyl-propyl]amino]-11-oxo-undecyl]pyridine-2-carboxamide] | 1 nM | 8.03 | 81 nM | 0.487 nM
Cc1cc(N(CCCCN(C)C(=O)CCCCCCCCCC(=O)N[C@H](C(=O)N2C[C@H](O)C[C@H]2C(=O)N[C@@H](C)c2ccc(-c3scnc3C)cc2)C(C)(C)C)c2ccc(-c3cnn(CC45CC6(C)CC(C)(C4)CC(OCCN(C)C)(C6)C5)c3C)c(C(=O)O)n2)nnc1Nc1nc2ccccc2s1 [Example 114, 6-[[6-(1,3-benzothiazol-2-ylamino)-5-methyl-pyridazin-3-yl]-[4-[[11-[[(1S)-1-[(2S,4R)-4-hydroxy-2-[[(1S)-1-[4-(4-methylthiazol-5-yl)phenyl]ethyl]carbamoyl]pyrrolidine-1-carbonyl]-2,2-dimethyl-propyl]amino]-11-oxo-undecanoyl]-methyl-amino]butyl]amino]-3-[1-[[3-[2-(dimethylamino)ethoxy]-5,7-dimethyl-1-adamantyl]methyl]-5-methyl-pyrazol-4-yl]pyridine-2-carboxylic acid] | 1 nM | 7.61 | 1720 nM | 2.67 nM
Cc1ncsc1-c1ccc([C@H](C)NC(=O)[C@@H]2C[C@@H](O)CN2C(=O)[C@@H](NC(=O)CCCCCCCNC(=O)c2nc(N3CCCc4c3nnc(Nc3nc5ccccc5s3)c4C)ccc2-c2cnn(CC34CC5(C)CC(C)(C3)CC(OCCN3CCCC3)(C5)C4)c2C)C(C)(C)C)cc1 [Example 129, 6-[3-(1,3-benzothiazol-2-ylamino)-4-methyl-6,7-dihydro-5H-pyrido[2,3-c]pyridazin-8-yl]-3-[1-[[3,5-dimethyl-7-(2-pyrrolidin-1-ylethoxy)-1-adamantyl]methyl]-5-methyl-pyrazol-4-yl]-N-[8-[[(1S)-1-[(2S,4R)-4-hydroxy-2-[[(1S)-1-[4-(4-methylthiazol-5-yl)phenyl]ethyl]carbamoyl]pyrrolidine-1-carbonyl]-2,2-dimethyl-propyl]amino]-8-oxo-octyl]pyridine-2-carboxamide] | 1 nM | 8.28 | 3 nM | 7.34 nM
Cc1ncsc1-c1ccc(CNC(=O)[C@@H]2C[C@@H](O)CN2C(=O)[C@@H](NC(=O)C2(F)CC2)C(C)(C)C)c(OCCCCCCCCCN(C)CCOC23CC4(C)CC(C)(CC(Cn5ncc(-c6ccc(N7CCCc8c7nnc(Nc7nc9ccccc9s7)c8C)nc6C(=O)O)c5C)(C4)C2)C3)c1 [Example 72, 6-[3-(1,3-benzothiazol-2-ylamino)-4-methyl-6,7-dihydro-5H-pyrido[2,3-c]pyridazin-8-yl]-3-[1-[[3-[2-[9-[2-[[[(2S,4R)-1-[(2S)-2-[(1-fluorocyclopropanecarbonyl)amino]-3,3-dimethyl-butanoyl]-4-hydroxy-pyrrolidine-2-carbonyl]amino]methyl]-5-(4-methylthiazol-5-yl)phenoxy]nonyl-methyl-amino]ethoxy]-5,7-dimethyl-1-adamantyl]methyl]-5-methyl-pyrazol-4-yl]pyridine-2-carboxylic acid] | > 1670 nM | 7.78 | 179 nM | 13.3 nM
